The source made the active and inactive calls. No cut-off for these calls is given here.
Tests used:
Staphylococcus aureus = assay: Antimicrobial activity against Staphylococcus aureus ATCC 21027 by agar diffusion method; type: functional, organism-based
Bacillus subtilis = assay: Antimicrobial activity against Bacillus subtilis KMM 430 by agar diffusion method; type: functional, organism-based
Escherichia coli = assay: Antimicrobial activity against Escherichia coli ATCC 15034 by agar diffusion method; type: functional, organism-based
Pseudomonas aeruginosa = assay: Antimicrobial activity against Pseudomonas aeruginosa KMM 433 by agar diffusion method; type: functional, organism-based
Candida albicans = assay: Antimicrobial activity against Candida albicans KMM 455 by agar diffusion method; type: functional, organism-based
THP-1 = assay: Cytotoxicity against human THP1 cells after 46 hrs by MTS assay; type: functional, cell-based; settings: THP-1, 46 h
HL-60 = assay: Cytotoxicity against human HL60 cells after 46 hrs by MTS assay; type: functional, cell-based; settings: HL-60, 46 h
[1] = Cytotoxicity against CD1 mouse splenocytes up to 100 uM after 46 hrs by MTS assay; type: cell-based; settings: splenocyte
[2] = Cytotoxicity against CD1 mouse erythrocytes up to 100 uM after 46 hrs by MTS assay; type: cell-based; settings: erythrocyte

Row | SMILES | Activity (Staphylococcus aureus) | Activity (Bacillus subtilis) | Activity (Escherichia coli) | Activity (Pseudomonas aeruginosa) | Activity (Candida albicans) | IC50 (THP-1) [µM] | IC50 (HL-60) [µM] | Activity [1] | Activity [2]
1 | C=C(C)C#C[C@]1(O)[C@@H](O)[C@@H]2OC(C)(C)[C@H](OC(C)=O)C[C@@]23O[C@H]3[C@@H]1O | inactive | inactive | inactive | inactive | inactive |  |  |  | 
2 | CC(=O)O[C@@H]1C[C@]23O[C@H]2C2=C(C(=O)CC(C)(C)O2)[C@@H](O)[C@@H]3OC1(C)C | inactive | inactive | inactive | inactive | inactive |  |  |  | 
3 | COC(=O)/C=C/C(O)=C1\COCC(OC(C)=O)=C1C(=O)OC | inactive | inactive | inactive | inactive | inactive | 37.4 | 4.3 | Non-toxic | Non-toxic
4 | C=C(C)C#C[C@@]1(O)[C@@H](O)[C@H](O)[C@]2(OC(C)=O)C[C@@H](O)C(C)(C)O[C@H]2[C@@H]1O | inactive | inactive | inactive | inactive | inactive |  |  |  | 
5 | C=C(C)C#C[C@]12O[C@H]1[C@@H]1OC(C)(C)[C@H](OC(C)=O)C[C@@]1(O)[C@@H](O)[C@@H]2O | inactive | inactive | inactive | inactive | inactive |  |  |  | 

Reference: ChEMBL document CHEMBL3286250, “Oxirapentyns F-K from the marine-sediment-derived fungus Isaria felina KMM 4639” (J Nat Prod, 2014)
